In patent US4362743A, “Antibacterial monic acid esters” (Beecham Group Limited, priority 1980, dated 1982):
≈ marks a conversion by molar mass, not a printed value. Read-outs that look alike come from different tables or passages of the source.

Columns and labels:
Type in all cases: cell-based
M. suipneumoniae HK (2) = test: Anti-mycoplasmal activity in vitro MIC; conditions: Mesomycoplasma hyopneumoniae, 144 h
M. suipneumoniae JF 435 = test: Anti-mycoplasmal activity in vitro MIC; conditions: Mesomycoplasma hyopneumoniae, JF435, 144 h
M. gallisepticum S6 = test: Anti-mycoplasmal activity in vitro MIC; conditions: Mycoplasmoides gallisepticum, 144 h; M. gallisepticum S6; Friis broth, 0.9% agarose, 6 days 37° C.; read-out: M.I.C.
M. suipneumoniae Str. 11 = test: Anti-mycoplasmal activity in vitro MIC; conditions: Mesomycoplasma hyopneumoniae
[1] = tested on: M. suipneumoniae J2206/183b; test: Anti-mycoplasmal activity in vitro MIC; conditions: Mesomycoplasma hyopneumoniae, 144 h
Strep. faecalis I = test: Human bacteria MIC; conditions: Enterococcus faecalis, nutrient agar, 5% chocolated horse blood, 18 hours 37° C.
Procedure: (§1) The values were determined by serial dilutions in nutrient agar with 5% chocolated horse blood after incubations for 18 hours at 37° C.

Staph. aureus Oxford [2] = test: Human bacteria MIC; conditions: Staphylococcus aureus; Staph. aureus Oxford; nutrient agar, 5% chocolated horse blood, 18 hours 37° C.; read-out: M.I.C.
Procedure: as §1

Strep Group B 2788 = test: Human bacteria MIC; conditions: Strep Group B 2788; nutrient agar, 5% chocolated horse blood, 18 hours 37° C.; read-out: M.I.C.
Procedure: as §1

[3] = tested on: Pasteurella multocida 1633; test: Human bacteria MIC; conditions: Pasteurella multocida 1633; nutrient agar, 5% chocolated horse blood, 18 hours 37° C.; read-out: M.I.C.
Procedure: as §1

[4] = tested on: Neisseria catarralis 1502; test: Human bacteria MIC; conditions: Neisseria catarralis 1502; nutrient agar, 5% chocolated horse blood, 18 hours 37° C.; read-out: M.I.C.
Procedure: as §1

[5] = tested on: Haemophilus influenzae Q1; test: Human bacteria MIC; conditions: Haemophilus influenzae Q1; nutrient agar, 5% chocolated horse blood, 18 hours 37° C.; read-out: M.I.C.
Procedure: as §1

M. bovis NCTC 10131 = test: microbe, parasite or virus in culture; conditions: NCTC10131, 144 h
S. typhimurium S18 = test: Veterinary bacteria MIC; conditions: Salmonella enterica
Procedure: (§2) The values were determined using a two fold serial dilutions in Diagnostic Sensitivity Test Agar with an inoculum of 10^4 organisms and incubation for 18 hours at 37° C.

Past. multocida PA2 = test: Veterinary bacteria MIC; conditions: Pasteurella multocida; Past. multocida PA2; Diagnostic Sensitivity Test Agar, 18 hours 37° C.; read-out: M.I.C.
Procedure: as §2

Past. multocida PA1 = test: Veterinary bacteria MIC; conditions: Pasteurella multocida, Diagnostic Sensitivity Test Agar, 18 hours 37° C.
Procedure: as §2

Staph. aureus Oxford [6] = test: Veterinary bacteria MIC; conditions: Staphylococcus aureus, Diagnostic Sensitivity Test Agar, 18 hours 37° C.
Procedure: as §2

[7] = tested on: Staph. aureus B4 (pen. resistant); test: Veterinary bacteria MIC; conditions: Staphylococcus aureus, Diagnostic Sensitivity Test Agar, 18 hours 37° C.
Procedure: as §2

Past. haemolytica PA5 = test: Veterinary bacteria MIC; conditions: Mannheimia haemolytica; Past. haemolytica PA5; Diagnostic Sensitivity Test Agar, 18 hours 37° C.; read-out: M.I.C.
Procedure: as §2

Strep. uberis SPU1 = test: Veterinary bacteria MIC; conditions: Streptococcus uberis, Diagnostic Sensitivity Test Agar, 18 hours 37° C.
Procedure: as §2

E. coli NCTC 10418 = test: Veterinary bacteria MIC; conditions: Escherichia coli
Procedure: as §2

S. dublin S7 = test: Veterinary bacteria MIC; conditions: Salmonella enterica
Procedure: as §2

Strep. dysgalactiae SPD1 = test: Veterinary bacteria MIC; conditions: Streptococcus dysgalactiae, Diagnostic Sensitivity Test Agar, 18 hours 37° C.
Procedure: as §2

E. coli El = test: Veterinary bacteria MIC; conditions: Escherichia coli
Procedure: as §2

Strep. agalactiae SPA1 = test: Veterinary bacteria MIC; conditions: Streptococcus agalactiae, Diagnostic Sensitivity Test Agar, 18 hours 37° C.
Procedure: as §2

[8] = tested on: Erysipelothrix rhusiopathiae NCTC 8163; test: Veterinary bacteria MIC; conditions: NCTC8163; Erysipelothrix rhusiopathiae NCTC 8163; Diagnostic Sensitivity Test Agar, 18 hours 37° C.; read-out: M.I.C.
Procedure: as §2

Bord. brochiasetpica B09 = test: Veterinary bacteria MIC; conditions: Diagnostic Sensitivity Test Agar, 18 hours 37° C.
Procedure: as §2

Bord. bronchiseptica B08 = test: Veterinary bacteria MIC; conditions: Bordetella bronchiseptica; Bord. bronchiseptica B08; Diagnostic Sensitivity Test Agar, 18 hours 37° C.; read-out: M.I.C.
Procedure: as §2

[9] = tested on: Corynebacterium pyogenes CY1; test: Veterinary bacteria MIC; conditions: Trueperella pyogenes
Procedure: as §2

[10] = tested on: Strep. suis (Group D) SPS11; test: Veterinary bacteria MIC; conditions: Streptococcus suis
Procedure: as §2

[11] = tested on: Staph. aureus 152 (pen. sens); test: Veterinary bacteria MIC; conditions: Staphylococcus aureus, Diagnostic Sensitivity Test Agar, 18 hours 37° C.
Procedure: as §2

[12] = tested on: M. hyosynoviae ATCC 25591; test: Anti-mycoplasmal activity in vitro MIC; conditions: 144 h
[13] = tested on: Corneybacterium xerosis 9755; test: Human bacteria MIC; conditions: Corneybacterium xerosis 9755; nutrient agar, 5% chocolated horse blood, 18 hours 37° C.; read-out: M.I.C.
Procedure: as §1

Row | SMILES | MIC (M. gallisepticum S6) [µg/mL] | MIC (Strep. faecalis I) [µg/mL] | MIC (Staph. aureus Oxford [2]) [µg/mL] | MIC (Strep Group B 2788) [µg/mL] | MIC [3] [µg/mL] | MIC [4] [µg/mL] | MIC (M. bovis NCTC 10131) [µg/mL] | MIC (Past. multocida PA2) [µg/mL] | MIC (Past. multocida PA1) [µg/mL] | MIC (Staph. aureus Oxford [6]) [µg/mL] | MIC [7] [µg/mL] | MIC (Past. haemolytica PA5) [µg/mL] | MIC (Strep. uberis SPU1) [µg/mL] | MIC (Strep. dysgalactiae SPD1) [µg/mL] | MIC (Strep. agalactiae SPA1) [µg/mL] | MIC [8] [µg/mL] | MIC (Bord. brochiasetpica B09) [µg/mL] | MIC (Bord. bronchiseptica B08) [µg/mL] | MIC [11] [µg/mL] | further results
1 | C/C(=C\C(=O)OCCCC(=NO)c1ccccc1)C[C@@H]1OC[C@H](C[C@@H]2O[C@H]2[C@@H](C)[C@H](C)O)[C@@H](O)[C@H]1O [Example 1, 4-Hydroxyimino-4-phenylbutyl monate A] | 10 (≈ 19.8 µM) | > 100 | 2.5 (≈ 4.94 µM) | 2.5 (≈ 4.94 µM) | 5 (≈ 9.89 µM) | 0.2 (≈ 0.396 µM) | ≤ 0.01 | 0.625 (≈ 1.24 µM) | 2.5 (≈ 4.94 µM) | 0.625 (≈ 1.24 µM) | 0.625 (≈ 1.24 µM) | 10 (≈ 19.8 µM) | 0.156 (≈ 0.309 µM) | 0.625 (≈ 1.24 µM) | 0.625 (≈ 1.24 µM) | 20 (≈ 39.6 µM) | 20 (≈ 39.6 µM) | 40 (≈ 79.1 µM) | 0.625 (≈ 1.24 µM) | MIC (M. suipneumoniae HK (2); M. suipneumoniae HK (2), Friis broth, 0.9% agarose, 6 days 37° C., read-out: M.I.C.): 0.25 µg/mL (≈ 0.494 µM); MIC (M. suipneumoniae JF 435; M. suipneumoniae JF 435, Friis broth, 0.9% agarose, 6 days 37° C., read-out: M.I.C.): 0.25 µg/mL (≈ 0.494 µM); MIC (M. suipneumoniae Str. 11; 144 h, M. suipneumoniae Str. 11, Friis broth, 0.9% agarose, 6 days 37° C., read-out: M.I.C.): 0.1 µg/mL (≈ 0.198 µM); MIC ([1]; M. suipneumoniae J2206/183b, Friis broth, 0.9% agarose, 6 days 37° C., read-out: M.I.C.): 0.25 µg/mL (≈ 0.494 µM); MIC [5]: 0.5 µg/mL (≈ 0.989 µM); MIC (S. typhimurium S18; TYPHIMURIUM, 18 h): > 80 µg/mL; MIC (E. coli NCTC 10418; NCTC10418, 18 h): > 80 µg/mL; MIC (S. dublin S7; S7, 18 h): > 80 µg/mL; MIC (E. coli El; 18 h): > 80 µg/mL; MIC ([9]; CY1, 18 h): > 80 µg/mL; MIC ([10]; 18 h): 5 µg/mL (≈ 9.89 µM); MIC ([12]; M. hyosynoviae ATCC 25591, Friis broth, 0.9% agarose, 6 days 37° C., read-out: M.I.C.): 0.25 µg/mL (≈ 0.494 µM)
2 | C/C(=C\C(=O)OCCCC(=NNC(N)=O)c1ccccc1)C[C@@H]1OC[C@H](C[C@@H]2O[C@H]2[C@@H](C)[C@H](C)O)[C@@H](O)[C@H]1O [Example 2, 4-Phenyl-4-semicarbazonobutyl monate A] | 10 (≈ 18.3 µM) | > 100 | 5 (≈ 9.13 µM) | 2.5 (≈ 4.56 µM) | 10 (≈ 18.3 µM) | 1 (≈ 1.83 µM) | 0.05 (≈ 0.0913 µM) | 5 (≈ 9.13 µM) | 20 (≈ 36.5 µM) | 5 (≈ 9.13 µM) | 10 (≈ 18.3 µM) | 80 (≈ 146 µM) | 0.625 (≈ 1.14 µM) | 0.625 (≈ 1.14 µM) | 2.5 (≈ 4.56 µM) | 10 (≈ 18.3 µM) | 80 (≈ 146 µM) | > 80 | 5 (≈ 9.13 µM) | MIC (M. suipneumoniae HK (2)): 0.5 µg/mL (≈ 0.913 µM); MIC (M. suipneumoniae JF 435): 0.5 µg/mL (≈ 0.913 µM); MIC (M. suipneumoniae Str. 11; STR.11, 144 h): 0.25 µg/mL (≈ 0.456 µM); MIC ([1]; J2206/183B): 0.5 µg/mL (≈ 0.913 µM); MIC [13]: > 100 µg/mL; MIC (S. typhimurium S18; S. typhimurium S18, Diagnostic Sensitivity Test Agar, 18 hours 37° C., read-out: M.I.C.): > 80 µg/mL; MIC (E. coli NCTC 10418; NCTC10418, E. coli NCTC 10418, Diagnostic Sensitivity Test Agar, 18 hours 37° C., read-out: M.I.C.): > 80 µg/mL; MIC (S. dublin S7; S. dublin S7, Diagnostic Sensitivity Test Agar, 18 hours 37° C., read-out: M.I.C.): > 80 µg/mL; MIC (E. coli El; E. coli El, Diagnostic Sensitivity Test Agar, 18 hours 37° C., read-out: M.I.C.): > 80 µg/mL; MIC ([9]; Corynebacterium pyogenes CY1, Diagnostic Sensitivity Test Agar, 18 hours 37° C., read-out: M.I.C.): > 80 µg/mL; MIC ([10]; Strep. suis (Group D) SPS11, Diagnostic Sensitivity Test Agar, 18 hours 37° C., read-out: M.I.C.): 10 µg/mL (≈ 18.3 µM); MIC [12]: 0.5 µg/mL (≈ 0.913 µM)
